Common to all, as to assay: NCI tumour cell line growth inhibition, 48 h
For assay [1], the system named is DU-145.
Assay [2] deals with MDA-MB-435.
For assay [3], the system named is MCF7.
The subject of assay [4] is SR.
For assay [5], the system named is NCI-H226.
The subject of assay [6] is HOP-92.
Assay [7] deals with NCI-H460.
Assay [8] concerns MOLT-4.
The subject of assay [9] is NCI-H23.
The test system of assay [10] is A549.
For assay [11], the system named is OVCAR-5.
Assay [12] relates to UACC-257.
In assay [13] the test system is BT-549.
The test system of assay [14] is SW-620.
In assay [15] the test system is U-251.
Assay [16] relates to IGROV-1.
The subject of assay [17] is PC-3.
Assay [18] has as its system MDA-N.
Assay [19] has as its system HCT-15.
For assay [20], the system named is OVCAR-4.

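Values below derive from 48-hour exposures of cells grown in 96-well plates, with endpoints linearly interpolated between the two concentrations bracketing the appropriate inhibition level. The concentration for 50% growth inhibition is given as GI50.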 Calls of active or inactive are those of the source. Cut-off read from the data, not from the text of the source: active = GI50 up to about 1.1 µM and inactive = higher.

`Cc1cc2cc3c(O)nc(O)nc3nc2cc1C`: the GI50 in assay [1], in assay [2], in assay [3], in assay [4], in assay [5] and in [6] was > 100 µM (inactive) in each case. Besides, the GI50 in assay [7], in assay [8], in assay [9], in [10], in assay [11] and in assay [12] was > 100 µM (inactive) throughout. The GI50 in assay [13], in [14], in [15], in assay [16], in assay [17] and in assay [18] was > 100 µM (inactive) throughout. The GI50 was above 100 µM in assay [19] and > 100 µM (inactive) in [20].
On to `N#CC1(Nc2ccc(-c3ccc(NC4(C#N)CCCC4)cc3)cc2)CCCC1`, for which the GI50 in assay [1] is > 100 µM (inactive); in [2], > 100 µM (inactive); in assay [3] it was > 100 µM (inactive); in [4] it was > 100 µM (inactive); in assay [5], > 100 µM (inactive); in [6], 39.3 µM (inactive). Also, the GI50 in [7] was > 100 µM (inactive); in assay [8] it was 86.1 µM (inactive); in assay [9], > 100 µM (inactive); in [10], > 100 µM (inactive); in assay [11] it was > 100 µM (inactive); in assay [12], > 100 µM (inactive). Moreover, the GI50 in [13], in [14], in assay [15], in assay [16], in assay [17] and in assay [18] was > 100 µM (inactive) throughout. Also, the GI50 is above 100 µM in assay [19] and > 100 µM (inactive) in [20].
Take `CCCC[C@H]1C(=O)O[C@H](C)[C@H](NC(=O)c2cccc(NC=O)c2O)C(=O)O[C@@H](C)[C@@H]1OC(=O)CC(C)C` [ANTIMYCIN A3]: the GI50 in assay [1] is 3.55 µM (inactive); in assay [2] it was 1.11 µM (active); in assay [3], 0.0442 µM (active); in assay [4], < 0.0347 µM (active); in [5] it was 0.883 µM (active); in assay [6], 5.36 µM (inactive). In addition, the GI50 was < 0.01 µM (active) in assay [7]; < 0.01 µM (active) in assay [8]; 0.294 µM (active) in [9]; 0.0441 µM (active) in [10]; 17 µM (inactive) in assay [11]; 0.04 µM (active) in [12]. In addition, the GI50 was 1.68 µM (inactive) in [13]; 8.18 µM (inactive) in assay [14]; 0.149 µM (active) in assay [15]; 3.94 µM (inactive) in [16]; 0.278 µM (active) in assay [17]; 2.43 µM (inactive) in [18]. For the same compound, the GI50 in assay [19] was below 0.01 µM; in assay [20], 2.37 µM (inactive).
Turning to `C/C1=C\[C@@H](O)C(=O)/C=C/C=C\c2csc(n2)[C@@H](C)NC(=O)C[C@@]2(CC1)[S+]([O-])SC(=O)[C@]2(C)O` (stereo not given in full) [LEINAMYCIN], the GI50 is 0.00679 µM (active) in assay [1]; 0.0187 µM (active) in assay [2]; 0.000499 µM (active) in assay [3]; 0.00327 µM (active) in assay [4]; 0.206 µM (active) in [5]; 0.00228 µM (active) in [6]. The GI50 was 0.00986 µM (active) in assay [7]; 0.00486 µM (active) in assay [8]; 0.00594 µM (active) in assay [9]; 0.12 µM (active) in assay [10]; 0.104 µM (active) in assay [11]; 0.0298 µM (active) in [12]. For the same compound, the GI50 in assay [13] is 0.00151 µM (active); in assay [14], 0.00204 µM (active); in [15] it was 0.0454 µM (active); in assay [16], 0.2 µM (active); in assay [17] it was 0.0128 µM (active); in [18], 0.0101 µM (active). The GI50 in assay [19] was 0.0134 µM; in [20], 0.0217 µM (active).
Turning to `O=C(O)Cc1ccccc1` [PHENYLACETIC ACID], the GI50 is > 100 µM (inactive) in [1]; > 100 µM (inactive) in assay [2]; > 1000 µM (inactive) in assay [3]; > 1000 µM (inactive) in assay [4]; > 100 µM (inactive) in [5]; 11.4 µM (inactive) in assay [6]. Besides, the GI50 in assay [7], in assay [8], in [9], in [10], in assay [11] and in assay [12] was > 100 µM (inactive) each time. The GI50 is > 1000 µM (inactive) in assay [13]; > 100 µM (inactive) in assay [14]; > 100 µM (inactive) in assay [15]; > 100 µM (inactive) in assay [16]; > 100 µM (inactive) in assay [17]; > 100 µM (inactive) in assay [18]. The GI50 in [19] is above 100 µM; in assay [20], > 100 µM (inactive).

The record behind these values is ChEMBL document CHEMBL1201862, “PubChem BioAssay data set” (2004).
